Experimental data reported in ChEMBL document CHEMBL3045790, “QSAR study of 5-arylidene-2,4-thiazolidinediones as aldose reductase inhibitors” (Med Chem Res, 2008).

The compounds below were run against Aldo-keto reductase family 1 member B1 (Homo sapiens, UniProt P15121) (assay: Inhibition of aldose reductase (unknown origin)).

| IC50 [µM] | SMILES |
| --- | --- |
| 10.7 | O=C(O)CN1C(=O)S/C(=C\c2cccc(Oc3ccccc3)c2)C1=O |
| 0.17 | O=C(O)CN1C(=O)S/C(=C\c2ccc(Oc3ccccc3)cc2)C1=O |
| 10.7 | O=C(O)CN1C(=O)S/C(=C\c2ccc(OCc3ccccc3)cc2)C1=O |
| 0.26 | COC(=O)CN1C(=O)S/C(=C/c2cccc(Oc3ccccc3)c2)C1=O |
| 0.661 | O=C(O)CN1C(=O)S/C(=C/c2ccc(-c3ccccc3)cc2)C1=O |
| 6.18 | O=C(O)CN1C(=O)S/C(=C/c2cccc3ccccc23)C1=O |
| 4.17 | O=C(O)CN1C(=O)S/C(=C/c2cccc(O)c2)C1=O |
| 39.1 | COC(=O)CN1C(=O)S/C(=C/c2ccc(O)cc2)C1=O |
| 0.49 | O=C(O)CN1C(=O)S/C(=C/c2ccc(O)cc2)C1=O |
| 0.82 | O=C(O)CN1C(=O)S/C(=C/c2ccc([N+](=O)[O-])cc2)C1=O |

Second part, the compound before the results:

| SMILES | IC50 [µM] |
| --- | --- |
| O=C1NC(=O)/C(=C/c2cccc3ccccc23)S1 | 8.95 |
| O=C1NC(=O)/C(=C/c2cccc(Oc3ccccc3)c2)S1 | 0.28 |
| O=C1NC(=O)/C(=C\c2cccc(O)c2)S1 | 0.15 |
| O=C(O)/C=C/CN1C(=O)S/C(=C/c2ccc(O)cc2)C1=O | 1.19 |
| Nc1cccc(/C=C2/SC(=O)NC2=O)c1 | 6.14 |
| COC(=O)CN1C(=O)S/C(=C/c2cccc(N)c2)C1=O | 1.32 |
| O=C(O)CN1C(=O)S/C(=C/c2cccc([N+](=O)[O-])c2)C1=O | 0.13 |
| O=C1NC(=O)/C(=C/c2ccc(O)cc2)S1 | 20.2 |
